Key:
SF-268 = settings: SF-268, CNS
HCT-15 = settings: HCT-15, Colon
PC-3 = settings: PC-3, Prostate
SK-MEL-5 = settings: SK-MEL-5, Melanoma
UACC-257 = settings: UACC-257, Melanoma
HCC-2998 = settings: HCC-2998, Colon
SK-OV-3 = settings: SK-OV-3, Ovarian
OVCAR-5 = settings: OVCAR-5, Ovarian
SNB-75 = settings: SNB-75, CNS
HCT-116 = format: cell-based; settings: HCT-116, Colon
RPMI-8226 = settings: RPMI-8226, Leukemia
786-0 = settings: 786-0, Renal
IGROV1 = settings: IGROV1, Ovarian
MDA-MB-435 = settings: MDA-MB-435, Melanoma
COLO 205 = settings: COLO 205, Colon
OVCAR-4 = format: cell-based; settings: OVCAR-4, Ovarian
DU-145 = settings: DU-145, Prostate
TK-10 = format: cell-based; settings: TK-10, Renal
SF-295 = settings: SF-295, CNS
UO-31 = settings: UO-31, Renal
BT-549 = format: cell-based; settings: BT-549, Breast
MOLT-4 = settings: MOLT-4, Leukemia
SNB-19 = format: cell-based; settings: SNB-19, CNS
K-562 = settings: K-562, Leukemia
UACC-62 = settings: UACC-62, Melanoma
[1] = read-out: 50% lethal concentration (LC50)
[2] = read-out: 50% lethal concentration (LC50), Leukemia

C=C1CCC2C3(C)COC(c4cn(-c5ccccc5)nc4-c4ccc(Cl)cc4)OC3CCC2(C)C1CC=C1C(=O)OCC1O (stereo not shown) [1g]
GI50 (SF-268): 2.39 µM | Total growth inhibition (TGI) (SF-268): 6.32 µM | CC50 (SF-268; [1]): > 100 µM | GI50 (HCT-15): 1.59 µM | Total growth inhibition (TGI) (HCT-15): 3.21 µM | CC50 (HCT-15; [1]): 6.51 µM | Total growth inhibition (TGI) (NCI-H23; NCI-H23, Non-Small Cell Lung): 3.59 µM | GI50 (NCI-H23; NCI-H23, Non-Small-Cell Lung): 1.73 µM | CC50 (NCI-H23; read-out: 50% lethal concentration (LC50), NCI-H23, Non-Small Cell Lung): 7.45 µM | GI50 (PC-3): 2.07 µM | Total growth inhibition (TGI) (PC-3): > 100 µM | CC50 (PC-3; [1]): > 100 µM | GI50 (SK-MEL-5): 1.7 µM | Total growth inhibition (TGI) (SK-MEL-5): 3.11 µM | CC50 (SK-MEL-5; [1]): 5.69 µM | GI50 (UACC-257): 1.8 µM | Total growth inhibition (TGI) (UACC-257): 3.63 µM | GI50 (HCC-2998): 1.88 µM | Total growth inhibition (TGI) (HCC-2998): 3.39 µM | GI50 (SK-OV-3): 3.04 µM | Total growth inhibition (TGI) (SK-OV-3): 1.67 µM | CC50 (SK-OV-3; [1]): > 100 µM | GI50 (OVCAR-5): 1.98 µM | Total growth inhibition (TGI) (OVCAR-5): 5.38 µM | CC50 (OVCAR-5; [1]): > 100 µM | GI50 (CCRF-CEM; Leukemia): 0.92 µM | Total growth inhibition (TGI) (CCRF-CEM; Leukemia): > 100 µM | CC50 (CCRF-CEM; [2]): > 100 µM | GI50 (SNB-75): 1.69 µM | Total growth inhibition (TGI) (SNB-75): 2.87 µM | CC50 (SNB-75; [1]): 5.87 µM | GI50 (HCT-116): 1.2 µM | Total growth inhibition (TGI) (HCT-116): 2.53 µM | CC50 (HCT-116; [1]): 5.37 µM | Total growth inhibition (TGI) (HOP-92; HOP-92, Non-Small Cell Lung): 3.08 µM | GI50 (HOP-92; HOP-92, Non-Small-Cell Lung): 1.5 µM | CC50 (HOP-92; read-out: 50% lethal concentration (LC50), HOP-92, Non-Small Cell Lung): 6.32 µM | GI50 (RPMI-8226): 2.46 µM | Total growth inhibition (TGI) (RPMI-8226): > 100 µM | CC50 (RPMI-8226; [1]): > 100 µM | GI50 (786-0): 1.99 µM | Total growth inhibition (TGI) (786-0): 4.17 µM | CC50 (786-0; [1]): 8.7 µM | Total growth inhibition (TGI) (NCI-H522; NCI-H522, Non-Small Cell Lung): 3.12 µM | GI50 (NCI-H522; NCI-H522, Non-Small-Cell Lung): 1.58 µM | CC50 (NCI-H522; read-out: 50% lethal concentration (LC50), NCI-H522, Non-Small Cell Lung): 6.17 µM | GI50 (IGROV1): 4.29 µM | Total growth inhibition (TGI) (IGROV1): 46.1 µM | CC50 (IGROV1; [1]): > 100 µM | GI50 (MDA-MB-435): 1.65 µM | Total growth inhibition (TGI) (MDA-MB-435): 3.28 µM | CC50 (MDA-MB-435; [1]): 6.51 µM | GI50 (COLO 205): 2.3 µM | Total growth inhibition (TGI) (COLO 205): 5.58 µM | GI50 (OVCAR-4): 2.03 µM | Total growth inhibition (TGI) (OVCAR-4): 5.15 µM | CC50 (OVCAR-4; [1]): > 100 µM | GI50 (DU-145): 2.05 µM | Total growth inhibition (TGI) (DU-145): 4.1 µM | GI50 (TK-10): 1.33 µM | Total growth inhibition (TGI) (TK-10): 2.74 µM | GI50 (ACHN; Renal): 1.89 µM | Total growth inhibition (TGI) (ACHN; Renal): 3.95 µM | CC50 (ACHN; read-out: 50% lethal concentration (LC50), Renal): 8.23 µM | GI50 (SF-295): 1.5 µM | Total growth inhibition (TGI) (SF-295): 2.88 µM | CC50 (SF-295; [1]): 5.51 µM | GI50 (UO-31): 1.99 µM | Total growth inhibition (TGI) (UO-31): 4.17 µM | CC50 (UO-31; [1]): 5.6 µM | GI50 (HL-60(TB); Leukemia): 2.67 µM | Total growth inhibition (TGI) (HL-60(TB); Leukemia): > 100 µM | CC50 (HL-60(TB); [2]): > 100 µM | GI50 (BT-549): 1.49 µM | Total growth inhibition (TGI) (BT-549): 3.37 µM | GI50 (T-47D; Breast): 1.31 µM | Total growth inhibition (TGI) (T-47D; Breast): 3.6 µM | CC50 (T-47D; read-out: 50% lethal concentration (LC50), Breast): > 100 µM | GI50 (MOLT-4): 0.88 µM | Total growth inhibition (TGI) (MOLT-4): > 100 µM | CC50 (MOLT-4; [1]): > 100 µM | GI50 (SNB-19): 1.4 µM | GI50 (K-562): 3.67 µM | Total growth inhibition (TGI) (K-562): > 100 µM | CC50 (K-562; [1]): > 100 µM | GI50 (UACC-62): 1.68 µM | Total growth inhibition (TGI) (UACC-62): 3.27 µM | CC50 (UACC-62; [1]): 6.39 µM

From PMC12298351, “Novel 3,19-(N-Phenyl-3-(4-fluorophenyl)-pyrazole) Acetal of Andrographolide Promotes Cell Cycle Arrest and Apoptosis in MDA-MB-231 Breast Cancer Cells” (Pharmaceuticals, 2025)
